This is an account of results in US9403841B2, “Phragamalin limonoids for the treatment of sexual dysfunction” (DICOTYLEDON AB, priority 2012, dated 2016).

The subject of test [1] is male mice. In words: Sexual behavior test: number of mounts of male mice on sexually receptive female mice during one hour. Type of test: in vivo. The source says:
A “sexually enhancing effect” is defined herein as the effect being observable as an at least 50% increase, more preferably at least 75% increase, in the number of mounts of sexually naive male mice onto sexually receptive female mice (both preferably being of 8 to 10 weeks of age), after a compound has been administered (orally or sub-cutaneously) to the male mice, the male mice are thereafter, each one separately, being introduced to a sexually receptive female mouse; the observed number of mounts being compared with the number of mounts for control male mice (i.e. control mice being male mice of the same age and strain as the treated ones, but which were not administered the compound but otherwise handled in the same way as the treated mice). The observation period shall be 1 h. It is further required that the number of male mice in each one of the treated and non-treated groups amount to at least three, more preferably to at least four, even more preferably to at least five, and most preferably to at least six in each group for the test to be valid; the average number of mounts for the non treated (average_mount_control) and treated (average_mount_treated) during the 1 h observation period are then calculated and the percent increase (Effect) is then being computed as:
Mice of 9 weeks age weighing 30±2 g were used throughout the study. They were all sexually unskilled. At 4 weeks of age they had been separated from their parents and males and females had been placed in separated cages. The mice were fed with pellets enriched with proteins and lipids.
Prior to the tests, male and female mice received specific treatments, as follows: […]
At 3.00 pm, a female mouse was introduced into each cage hosting a male mouse. The number of mounts of the male mouse, defined as a tentative of lateral or dorsal mounting on the female mouse with or without penis intromission, was then counted during a one-hour observation period and used as a simple measure of sexual behavior activity.

Test [2] has as its system male mice. Particulars: see WO 2008/145996; cited from earlier work.

As for `COC(=O)CC1C2(C)CC34OC5(C)OC67C(CC(=O)OC6C3(O)C2OC(C)=O)C(C)(C(OC(=O)C(F)(F)F)c2ccoc2)CCC7(O5)C14C` (stereo not shown) [GL-1203], in the test on male mice [1] (subcutaneous in olive oil for three consecutive days, doses tested 0.04, 0.4, 4 mg/kg), the “dose at which a clear and significant increase in the mounting frequency was seen (only at this dose)” value worked out at 4 mg/kg.
As for `COC(=O)CC1C2(C)CC34OC5(C)OC67C(CC(=O)OC6C3(OC(=O)C(C)C)C2OC(=O)C(C)C)C(C)(C(=O)c2ccoc2)CCC7(O5)C14C` (stereo not shown) [Compound R306], the “potency to induce a sexual enhancing effect (comparison)” value in the test on male mice [2] is on record as “more potent than R310”.
With `COC(=O)CC1C2(C)CC34OC5(C)OC67C(CC(=O)OC6C3(O)C2OC(=O)C(C)C)C(C)(C(=O)c2ccoc2)CCC7(O5)C14C` (stereo not shown) [SAE5], in the test on male mice [1] (oral in olive oil for three consecutive days, doses tested 0.004-4 mg/kg), the “dose at which clear and significant increases in number of mounts were seen already” value is on record as 0.04 mg/kg. In addition, in the test on male mice [1] (oral, 4 mg/kg for three consecutive days, D-4), the “maximum number of mounts over the one hour observation period (average)” value is given as 37 mounts.
